Laboratory results taken from ChEMBL document CHEMBL1123077, “N-2,3-Butadienyl-1,4-butanediamine derivatives: potent irreversible inactivators of mammalian polyamine oxidase” (J Med Chem, 1985).

Key:
[1] = Half life in pig liver at 12 uM; type: ADME, organism-based, Sus scrofa; details: pig liver (preparation not specified)
[2] = Half life in pig liver at 50 uM; type: ADME, organism-based, Sus scrofa; details: pig liver (preparation not specified)

half-life at 12 µM [1] [min]	half-life at 50 µM [2] [min]	Compound
12		C=CCNCCCCNC
	35	C=CCNCCCCN
